From article PMC10584170, “Machine learning-based phenotypic imaging to characterise the targetable biology of Plasmodium falciparum male gametocytes for the development of transmission-blocking antimalarials” (PLOS Pathogens, 2023)
Like-named read-outs stand apart in the source and are kept apart here.

Tests used:
[1] = test system: P. falciparum gametocytes; set-up: method as in Almela et al 2015; settings: ref Almela et al 2015; read-out: Pf Gametocyte viability (ATP) GC-ATP IC50; cited from earlier work
[2] = test system: HepG2 cells; assay: HepG2 cytotoxicity counter-screen; settings: for Mean TOX: mean of the HepG2 TOX50 values; for Tox50: cytotoxic activity against HepG2 cells
[3] = test system: P. falciparum gametocytes; assay: P. falciparum Gametocyte Viability ATP Assay (PfGCT); format: cell-based, Plasmodium falciparum
Description: (§1) Fig 1 The activity of TCAMS compound identified in the Pf DGFA screen. (A) 85 molecules were confirmed active in the Pf DGFA. 58 were previously identified in one or more transmission-blocking screens. […] No molecule was identified with >4.7-fold greater activity against female gametocytes. Abbreviations (IC50 = concentration giving 50% inhibition, PbODA = P. berghei Ookinete Development Assay, PfDGFA = P. falciparum Dual Gamete Formation Assay, PfFGAA = P. falciparum Female Gametocyte Activation Assay, PfGCT = P. falciparum Gametocyte Viability ATP Assay).

[4] = test system: P. falciparum male gametocytes; assay: P. falciparum Dual Gamete Formation Assay (PfDGFA), male readout (exflagellation); format: cell-based, Plasmodium falciparum NF54; settings: for Selectivity Ratio M: HepG2 Tox50 versus male IC50
Method in brief: (§2)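 Male and female gamete formation were quantified by microscopy image analysis following 24 h incubation of mature NF54 gametocytes with compound and activation at 28°C with xanthurenic acid.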

[5] = test system: HepG2 cells; settings: cited from earlier work
[6] = test system: P. falciparum female gametocytes; set-up: method as in Miguel-Blanco et al 2017; settings: ref Miguel-Blanco et al 2017; read-out: Pf female gametogenesis FGAA IC50; cited from earlier work
[7] = test system: P. falciparum female gametocytes; assay: P. falciparum Female Gametocyte Activation Assay (PfFGAA); format: cell-based, Plasmodium falciparum
[8] = test system: P. falciparum female gametocytes; assay: P. falciparum Dual Gamete Formation Assay (PfDGFA), female readout (Pfs25-positive female gametes); format: cell-based, Plasmodium falciparum NF54; settings: for Selectivity ratio F: HepG2 Tox50 versus female IC50
Method in brief: as §2

[9] = test system: P. berghei ookinete development; assay: P. berghei Ookinete Development Assay (PbODA); format: cell-based, Plasmodium berghei; settings: Mean TOX HepG2 over Pb ODA value; GREEN = >10-fold; RED = <10-fold
Description: as §1

[10] = Mean TOX HepG2 over GC-ATP IC50, GREEN = >10-fold, RED = <10-fold
[11] = this study, read-out: Pf DGFA IC50 MALE
[12] = Mean TOX HepG2 over FGAA IC50, GREEN = >10-fold, RED = <10-fold
[13] = this study, read-out: Pf DGFA IC50 FEM
[14] = Mean TOX HepG2 over DGFA IC50 MALE, GREEN = >10-fold, RED = <10-fold
[15] = Plasmodium falciparum, PfDGFA, 24 h incubation with gametocytes before induction, exflagellation readout, read-out: Male IC50
[16] = HepG2 value reported with the FGAA screen, ref Miguel-Blanco et al 2017
[17] = HepG2 value reported with the GC-ATP screen, ref Almela et al 2015
[18] = Mean TOX HepG2 over DGFA IC50 FEM, GREEN = >10-fold, RED = <10-fold
[19] = Plasmodium falciparum, PfDGFA, 24 h incubation with gametocytes before induction, female gamete readout, read-out: Female IC50
[20] = Plasmodium falciparum, 2µM, 24h preincubation with gametocytes, average of replicates, read-out: Average inhibition male (%)
[21] = Plasmodium falciparum, 2µM, 24h preincubation with gametocytes, replicate R1, read-out: % inhibition male (individual replicates) R1
[22] = Plasmodium falciparum, 2µM, 24h preincubation with gametocytes, replicate R2, read-out: % inhibition male (individual replicates) R2
[23] = Plasmodium falciparum, 2µM, 24h preincubation with gametocytes, replicate R3, read-out: % inhibition male (individual replicates) R3
[24] = Plasmodium falciparum, 2µM, 24h preincubation with gametocytes, replicate R4, read-out: % inhibition male (individual replicates) R4
[25] = Plasmodium falciparum, 2µM, 24h preincubation with gametocytes, average of replicates, read-out: Average inhibition female (%)
[26] = Plasmodium falciparum, 2µM, 24h preincubation with gametocytes, replicate R1, read-out: % inhibition female (individual replicates) R1
[27] = Plasmodium falciparum, 2µM, 24h preincubation with gametocytes, replicate R2, read-out: % inhibition female (individual replicates) R2
[28] = Plasmodium falciparum, 2µM, 24h preincubation with gametocytes, replicate R3, read-out: % inhibition female (individual replicates) R3
[29] = Plasmodium falciparum, 2µM, 24h preincubation with gametocytes, replicate R4, read-out: % inhibition female (individual replicates) R4

For `[O-][s+]1c(Cl)c(-c2ccc(Cl)cc2)c2ccc(Cl)cc21` (stereo not shown) [TC66], the IC50 [1] is given as 20 nM, the “Mean TOX” value [2] is given as 13.92 µM and the “Cytotox ratio Pf GC-ATP” value [3, 10] is given as 695.8. For the same compound, the “Cytotox ratio Pf Male” value [4] was 99.4, the IC50 [4, 11] was 140 nM and the “FGAA TOX50 HepG2” value [5] was 11.35 µM. The “GC-ATP TOX50 HepG2” value [5] was 12.8 µM, the IC50 [6] was 40 nM and the “Cytotox ratio Pf FGAA” value [7, 12] was 347.9. For the same compound, the “Cytotox ratio Pf Female” value [8] was 99.4 and the IC50 [8, 13] was 140 nM.

For `O=C(O)CCSSc1cccc[n+]1[O-]` [TC78], the IC50 [1] is listed as 270 nM, the “Mean TOX” value [2] is listed as 22.16 µM and the “Cytotox ratio Pb Ookinete” value [9] is listed as 13258.7. The “Cytotox ratio Pf GC-ATP” value [3, 10] was 82.1, the “Cytotox ratio Pf Male” value [4] was 92.3 and the IC50 [4, 11] was 240 nM. The “FGAA TOX50 HepG2” value [5] was 19.05 µM, the “GC-ATP TOX50 HepG2” value [5] was 7.8 µM and the “ODA TOX50 HepG2” value [5] was 30.903 µM. For the same compound, the IC50 [6] was 40 nM, the “Cytotox ratio Pf FGAA” value [7, 12] was 554.1 and the “Cytotox ratio Pf Female” value [8] was 85.2. For the same compound, the IC50 [8, 13] was 260 nM.

For `Nc1cc(C=Cc2ccc([N+](=O)[O-])s2)nc2ccccc12` [TC80], the IC50 [1] is given as 600 nM, the “Mean TOX” value [2] is given as 4.68 µM and the “Cytotox ratio Pf GC-ATP” value [3, 10] is given as 7.8. The “Cytotox ratio Pf Male” value [4] was 14.2, the IC50 [4, 11] was 330 nM and the “GC-ATP TOX50 HepG2” value [5] was 7.6 µM. The “Cytotox ratio Pf Female” value [8] was 4.5 and the IC50 [8, 13] was 1030 nM.

For `COc1cc2nc(N3CCN(c4nc(N)c5cc(OC)c(OC)cc5n4)CC3)nc(N)c2cc1OC` [TCMDC-123865], the IC50 [1] is given as 260 nM, the Tox50 [2] is given as 41.34 µM and the “Mean TOX” value [2] is given as 39.61 µM. For the same compound, the “Cytotox ratio Pf GC-ATP” value ([3]; human) was 152.3, the HitlevelM ([4]; 2µM, 24h preincubation, number of replicates with >50% inhibition in the male readout) was 3 and the “Selectivity Ratio M” value [4] was 28.11. For the same compound, the “Cytotox ratio Pf Male” value [4, 14] was 26.9, the inhibition at 2 µM ([4]; Plasmodium falciparum, 2µM, 24h preincubation with gametocytes prior to induction of gametogenesis, average of replicates, read-out: Average inhibition male (%)) was 50.1% and the inhibition at 2 µM ([4]; Plasmodium falciparum, 2µM, 24h preincubation with gametocytes prior to induction of gametogenesis, replicate R1, read-out: % inhibition male (individual replicates) R1) was 50.8%. It also gave an inhibition at 2 µM ([4]; Plasmodium falciparum, 2µM, 24h preincubation with gametocytes prior to induction of gametogenesis, replicate R2, read-out: % inhibition male (individual replicates) R2) of 50.6%, an inhibition at 2 µM ([4]; Plasmodium falciparum, 2µM, 24h preincubation with gametocytes prior to induction of gametogenesis, replicate R3, read-out: % inhibition male (individual replicates) R3) of 23.6% and an inhibition at 2 µM ([4]; Plasmodium falciparum, 2µM, 24h preincubation with gametocytes prior to induction of gametogenesis, replicate R4, read-out: % inhibition male (individual replicates) R4) of 75.6%. The IC50 [4, 15] was 1470 nM, the “FGAA TOX50 HepG2” value [5, 16] was 52.49 µM and the “GC-ATP TOX50 HepG2” value [5, 17] was 25 µM. For the same compound, the IC50 [6] was 580 nM, the “Cytotox ratio Pf FGAA” value ([7]; human) was 68.3 and the HitlevelF ([8]; 2µM, 24h preincubation, number of replicates with >50% inhibition in the female readout) was 0. The “Selectivity ratio F” value [8] was 20.76, the “Cytotox ratio Pf Female” value [8, 18] was 19.9 and the inhibition at 2 µM ([8]; Plasmodium falciparum, 2µM, 24h preincubation with gametocytes prior to induction of gametogenesis, average of replicates, read-out: Average inhibition female (%)) was 2.6%. For the same compound, the inhibition at 2 µM ([8]; Plasmodium falciparum, 2µM, 24h preincubation with gametocytes prior to induction of gametogenesis, replicate R1, read-out: % inhibition female (individual replicates) R1) was 18.2%, the inhibition at 2 µM ([8]; Plasmodium falciparum, 2µM, 24h preincubation with gametocytes prior to induction of gametogenesis, replicate R2, read-out: % inhibition female (individual replicates) R2) was 4% and the inhibition at 2 µM ([8]; Plasmodium falciparum, 2µM, 24h preincubation with gametocytes prior to induction of gametogenesis, replicate R3, read-out: % inhibition female (individual replicates) R3) was -8.7%. For the same compound, the inhibition at 2 µM ([8]; Plasmodium falciparum, 2µM, 24h preincubation with gametocytes prior to induction of gametogenesis, replicate R4, read-out: % inhibition female (individual replicates) R4) was -3.2% and the IC50 [8, 19] was 1990 nM.

In the case of `CN(C)CCNCc1cccc(-c2ccc3c(Nc4ccc(Oc5ccccn5)cc4)ccnc3c2)c1` [TCMDC-138493], the IC50 [1] is given as 220 nM, the Tox50 [2] is given as 11.38 µM and the “Mean TOX” value [2] is given as 6.62 µM. For the same compound, the “Cytotox ratio Pf GC-ATP” value ([3]; human) was 20.4, the “Selectivity Ratio M” value [4] was 14.59 and the “Cytotox ratio Pf Male” value [4, 14] was 8.5. For the same compound, the inhibition at 2 µM [4, 20] was 96.2%, the inhibition at 2 µM [4, 21] was 93.5% and the inhibition at 2 µM [4, 22] was 99.2%. It also gave an inhibition at 2 µM [4, 23] of 91.9%, an inhibition at 2 µM [4, 24] of 100% and an IC50 [4, 15] of 780 nM. The “FGAA TOX50 HepG2” value [5, 16] was 3.98 µM, the “GC-ATP TOX50 HepG2” value [5, 17] was 4.49 µM and the IC50 [6] was 820 nM. For the same compound, the “Cytotox ratio Pf FGAA” value ([7]; human) was 4.9, the “Selectivity ratio F” value [8] was 2.14 and the “Cytotox ratio Pf Female” value [8, 18] was 1.2. The inhibition at 2 µM [8, 25] was 65.4%, the inhibition at 2 µM [8, 26] was 58.7% and the inhibition at 2 µM [8, 27] was 66.3%. The inhibition at 2 µM [8, 28] was 72.6%, the inhibition at 2 µM [8, 29] was 64.1% and the IC50 [8, 19] was 5320 nM.

In the case of `CN1CCN(CCCNCc2cccc(-c3ccc(CNCCc4ccccc4)cc3)c2)CC1.O=C(O)C(F)(F)F` [TCMDC-140643], the IC50 [1] is given as 410 nM, the Tox50 [2] is given as 13.04 µM and the “Mean TOX” value [2] is given as 13.07 µM. For the same compound, the “Cytotox ratio Pf GC-ATP” value ([3]; human) was 31.9, the “Selectivity Ratio M” value [4] was 18.8 and the “Cytotox ratio Pf Male” value [4, 14] was 18.9. For the same compound, the inhibition at 2 µM [4, 20] was 91.2%, the inhibition at 2 µM [4, 21] was 95% and the inhibition at 2 µM [4, 22] was 75.6%. It also gave an inhibition at 2 µM [4, 23] of 95.7%, an inhibition at 2 µM [4, 24] of 98.5% and an IC50 [4, 15] of 690 nM. For the same compound, the “FGAA TOX50 HepG2” value [5, 16] was 7.92 µM, the “GC-ATP TOX50 HepG2” value [5, 17] was 18.24 µM and the IC50 [6] was 1910 nM. The “Cytotox ratio Pf FGAA” value ([7]; human) was 6.8, the “Selectivity ratio F” value [8] was 1.63 and the “Cytotox ratio Pf Female” value [8, 18] was 1.6. The inhibition at 2 µM [8, 25] was 34.1%, the inhibition at 2 µM [8, 26] was 40.2% and the inhibition at 2 µM [8, 27] was 30.4%. The inhibition at 2 µM [8, 28] was 25.8%, the inhibition at 2 µM [8, 29] was 40% and the IC50 [8, 19] was 7980 nM.
